Read-outs that look alike come from different tables or passages of the source.
Assays:
[1] = tested on: S. aureus; format: cell-based, Staphylococcus aureus (ATCC 25923); conditions: radial diffusion, 1% agarose underlay, 10 mM sodium phosphate, 100 mM NaCl, pH 7.4, 3 individual experiments, quadruplicates
[2] = tested on: E. faecalis; test: radial diffusion assay (growth inhibition); format: cell-based, Enterococcus faecalis (ATCC 29212); conditions: 1% agarose underlay, 10 mM sodium phosphate, 100 mM NaCl, pH 7.4, 3 individual experiments, quadruplicates
[3] = tested on: E. coli; format: cell-based, Escherichia coli (ATCC 25922); conditions: radial diffusion, 1% agarose underlay, 10 mM sodium phosphate, 100 mM NaCl, pH 7.4, 3 individual experiments, quadruplicates
[4] = tested on: S. epidermidis; test: radial diffusion assay (growth inhibition); format: cell-based, Staphylococcus epidermidis (ATCC 12228); conditions: 1% agarose underlay, 10 mM sodium phosphate, 100 mM NaCl, pH 7.4, 3 individual experiments, quadruplicates
[5] = tested on: P. aeruginosa; test: radial diffusion assay (growth inhibition); format: cell-based, Pseudomonas aeruginosa (ATCC 27853); conditions: 1% agarose underlay, 10 mM sodium phosphate, 100 mM NaCl, pH 7.4, 3 individual experiments, quadruplicates, > 128 = not susceptible
[6] = tested on: A. baumanii; test: radial diffusion assay (growth inhibition); format: cell-based, Acinetobacter baumannii (ATCC 19606); conditions: 1% agarose underlay, 10 mM sodium phosphate, 100 mM NaCl, pH 7.4, 3 individual experiments, quadruplicates, > 128 = not susceptible
[7] = tested on: P4CCR5 cells; test: BrdU incorporation cell proliferation assay; format: cell-based
Method: 293-Luc cells were plated in 96 well plates at a density of 2 × 10^3 cells / well. After 48 hours, 50 μl of MTT-solution (3 mg/ml) was added and incubated at 37° C under 5% CO2 for 1 hour. After this time medium was removed and 100 μl 0.04 N HCL + 10% SDS was used to dissolve the resulting blue formazan crystals in living cells. The optical density was determined at 550 nm. Each single value of the triplicates was expressed as percent of the mean of triplicates of control cultures infected with the same vector in the absence of HDPs and the mean and the standard deviation of the percent values was calculated for each triplicate. In addition the BrdU Cell proliferation ELISA with chemiluminescence detection (Roche Diagnostics GmbH, Mannheim, Germany) was performed. After 293-Luc cells or P4CCR5 cells were plated in 96 well plates at a density of 2 × 10^3 cells/well BrdU (5-bromo-2'-deoxyuridine) was added to the cells with a resulting concentration of 10 μM for the last 22 h of the incubation period. After removing the culture medium, the cells were fixed and DNA was denatured in one step with Fixdenat. Thereafter the cells were incubated with Anti-BrdU-POD for 1 h at room temperature. The chemiluminescence detection was measured after automatic injection of substrate solution with a microplate-luminometer (Orion, Berthold detection systems, Pforzheim, Germany).
To determine the effect of HDPs on vector infectivity and cell metabolism, 293A target cells were plated in triplicates into 96-well plates at 2 × 10^3 cells / well. […] The affect of HDPs on cell metabolism was determined in parallel by plating 293-Luc cells exactly the same way as 293A cells and the luciferase activity was determined after one (as a control to inhibition of adenoviral vector infectivity) or two (as a control of lentiviral infectivity) days of incubation with HDPs. For GFP-expressing vectors, vector titers were calculated from the number of GFP positive cells per well as previously described and the BrdU incorporation assay was used to monitor cytotoxic effects.

[8] = tested on: retroviral vector (pRV-172) containing the amphotropic MLV Env; format: cell-based
[9] = tested on: VSV-G pseudotyped lentiviral vector VLΔBH
[10] = tested on: HIV vectors containing the HIV-1 envelope; parameters: IC50, HIV-1 Env mediated vector entry, as printed in the picture of Figure 6 A, B: unit not given beside the values
[11] = tested on: wild type HIV-1; parameters: IC50, wild type HIV-1 infection, as printed in the picture of Figure 6 C, D: unit not given beside the values; conditions: for IC50, wild type HIV-1 infection, as printed in the picture of Figure 6 C, D: P4CCR5 indicator cells, virus titer

## CC1(C)S[C@@H]2[C@H](NC(=O)[C@H](N)c3ccccc3)C(=O)N2[C@H]1C(=O)O [Ampicillin]
[1]
  M E C (minimal effectory concentration): 10,50 ± 0,2 μg/ ml
[2]
  M E C (minimal effectory concentration): 28,85 ± 0,6 μg/ ml
[3]
  M E C (minimal effectory concentration): 18,9 ± 0,9 μg/ ml

## Plectasin
[1]
  M E C (minimal effectory concentration): 2,42 ± 0,4 μg/ ml
[4]
  M E C (minimal effectory concentration): 8,20 ± 0,5 μg/ ml
[2]
  M E C (minimal effectory concentration): 10,60 ± 0,7 μg/ ml
[5]
  M E C (minimal effectory concentration): > 128 µg/mL
[3]
  M E C (minimal effectory concentration): 79,10 ± 0,3 μg/ ml
[6]
  M E C (minimal effectory concentration): > 128 µg/mL

## CC(C)C[C@H](NC(=O)[C@H](CCCNC(=N)N)NC(=O)CNC(=O)CNC(=O)[C@@H](N)CCCNC(=N)N)C(=O)N[C@H]1CSSC[C@@H](C(=O)N[C@H](C(=O)NCC(=O)N[C@@H](CCCNC(=N)N)C(N)=O)C(C)C)NC(=O)[C@H](C(C)C)NC(=O)[C@@H]2CSSC[C@H](NC(=O)[C@H](Cc3ccc(O)cc3)NC1=O)C(=O)N[C@@H](CCCNC(=N)N)C(=O)N[C@@H](CCCNC(=N)N)C(=O)N[C@@H](CCCNC(=N)N)C(=O)N[C@@H](Cc1ccccc1)C(=O)N2 [Protegrin-1]
[1]
  M E C (minimal effectory concentration): 0,91 ± 0,04 μg/ ml
[4]
  M E C (minimal effectory concentration): 4,48 ± 0,2 μg/ ml
[2]
  M E C (minimal effectory concentration): 4,46 ± 0,3 μg/ ml
[5]
  M E C (minimal effectory concentration): 3,3 ± 1,1 μg/ ml
[3]
  M E C (minimal effectory concentration): 2 ± 0,1 μg/ ml
[6]
  M E C (minimal effectory concentration): 5,01 ± 0,2 μg/ ml
[7]
  concentration up to which inhibitory effects on cell proliferation were not observed: > 50 µg/mL
  inhibitory effects on cell proliferation at the IC50 concentrations (25 μg/ml LL37, 14 μg/ml PG-1): only minimal inhibitory effects
[8]
  dose dependent reduction in luciferase activity, MLV vector compared with lentiviral vector: very similar
[9]
  50% inhibitory concentration (IC50) for the VLΔBH lentiviral vector: ~16.8 µg/mL
  specific inhibition of early steps of infection (lentiviral vector versus stably transduced target cells): Specific inhibition
[10]
  IC50, HIV-1 Env mediated vector entry, as printed in the picture of Figure 6 A, B: 14.3
[11]
  IC50, wild type HIV-1 infection, as printed in the picture of Figure 6 C, D: 7.2
[11]; wild type
  IC50 against wild type HIV-1: below 10 μg/ml

## CC[C@H](C)[C@H](NC(=O)[C@H](CCCCN)NC(=O)[C@H](CCC(=O)O)NC(=O)[C@H](CCCCN)NC(=O)[C@H](CO)NC(=O)[C@H](CCCCN)NC(=O)[C@H](CCCNC(=N)N)NC(=O)[C@H](Cc1ccccc1)NC(=O)[C@H](Cc1ccccc1)NC(=O)[C@H](CC(=O)O)NC(=O)CNC(=O)[C@H](CC(C)C)NC(=O)[C@@H](N)CC(C)C)C(=O)NCC(=O)N[C@@H](CCCCN)C(=O)N[C@@H](CCC(=O)O)C(=O)N[C@@H](Cc1ccccc1)C(=O)N[C@@H](CCCCN)C(=O)N[C@@H](CCCNC(=N)N)C(=O)N[C@H](C(=O)N[C@H](C(=O)N[C@@H](CCC(N)=O)C(=O)N[C@@H](CCCNC(=N)N)C(=O)N[C@H](C(=O)N[C@@H](CCCCN)C(=O)N[C@@H](CC(=O)O)C(=O)N[C@@H](Cc1ccccc1)C(=O)N[C@@H](CC(C)C)C(=O)N[C@@H](CCCNC(=N)N)C(=O)N[C@@H](CC(N)=O)C(=O)N[C@@H](CC(C)C)C(=O)N[C@H](C(=O)N1CCC[C@H]1C(=O)N[C@@H](CCCNC(=N)N)C(=O)N[C@H](C(=O)N[C@@H](CCC(=O)O)C(=O)N[C@@H](CO)C(=O)O)[C@@H](C)O)C(C)C)[C@@H](C)CC)C(C)C)[C@@H](C)CC [LL37]
[1]
  M E C (minimal effectory concentration): 4,74 ± 0,1 μg/ ml
[4]
  M E C (minimal effectory concentration): 13,09 ± 0,6 μg/ ml
[2]
  M E C (minimal effectory concentration): 13,61 ± 0,7 μg/ ml
[3]
  M E C (minimal effectory concentration): 11,66 ± 1,5 μg/ ml
[6]
  M E C (minimal effectory concentration): 13,13 ± 0,2 μg/ ml
[7]
  inhibitory effects on cell proliferation at the IC50 concentrations (25 μg/ml LL37, 14 μg/ml PG-1): only minimal inhibitory effects
[8]; 293A cells, triplicates of two independent experiments
  dose dependent reduction in luciferase activity, MLV vector compared with lentiviral vector: very similar
[9]
  50% inhibitory concentration (IC50) for the VLΔBH lentiviral vector: approximately 30 μg/ml
  specific inhibition of early steps of infection (lentiviral vector versus stably transduced target cells): Specific inhibition
[10]; P4CCR5 cells, GFP vector titer
  IC50, HIV-1 Env mediated vector entry, as printed in the picture of Figure 6 A, B: 25.1
[10]; vectors containing the envelope
  IC50, inhibition of HIV vectors containing the HIV-1 envelope: 25 µg/mL
[11]
  IC50, wild type HIV-1 infection, as printed in the picture of Figure 6 C, D: 87.8

— PMC548510, “Inhibition of early steps in the lentiviral replication cycle by cathelicidin host defense peptides” (Retrovirology, 2005)
